Laboratory results reported in patent US20250011368A1, “DLL3 TARGETING PEPTIDES AND CONSTRUCTS THEREOF” (MARIANA ONCOLOGY INC., priority 2023, published 2025).
Numbered stars: 1 amine (or outer) side, 2 acyl side, 3 side chain; on linkers, the order of the positions; unused ones are H or OH. Bridge positions count the residues as written; N and C are the ends. Square brackets hold non-standard residues; d marks the D form. Peptide text beside a SMILES is read from it. * marks the point of attachment. DOTA = O=C(O)CN1CCN(CC(=O)O)CCN(CC(=O)*)CCN(CC(=O)O)CC1; Phe(4-CF3) = N[C@@H](Cc1ccc(C(F)(F)F)cc1)C(=O)O; Trp(5-F) = N[C@@H](Cc1c[nH]c2ccc(F)cc12)C(=O)O; Trp(7-aza) = N[C@@H](Cc1c[nH]c2ncccc12)C(=O)O; Pro(trans-4-F) = O=C(O)[C@@H]1C[C@@H](F)CN1; 2Nal = N[C@@H](Cc1ccc2ccccc2c1)C(=O)O; Nva(3-Et) = CCC(CC)[C@H](N)C(=O)O; CH2 = C([*:1])[*:2]

How the values were obtained:
[1] = test system: CT26.DLL3 cells; assay: Cell binding (total uptake) of [177Lu]Lu-test peptide, CT26.DLL3 cells; assay type: cell-based; conditions: 1 hour at 37° C.
Method in brief: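 CT26.DLL3 cells (5–25 million/condition) in 1% PBSA incubated 1 h at 37°C with [177Lu]Lu-labelled peptide (0.8 μCi in 300 μL), radiolabelled at pH ~5, 80°C. Cells pelleted, washed twice with cold PBS+1% BSA; bound and unbound fractions gamma-counted, uptake binned as ≤25%, 25–50%, >50%.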

[2] = test system: SHP-77 cells; assay: Cell binding (total uptake) of [177Lu]Lu-test peptide, SHP-77 cells; assay type: cell-based; conditions: SHP77 cells, 1 hour at 37° C., bound fraction
Method: (§1) [^177Lu]LuCl3 was received from venders in HCl solution. For every mCi of [^177Lu]LuCl3 added to the reaction vial (1.5 mL Eppendorf vial), ammonium acetate buffer (0.2 M, pH 4.9, 100 μL, containing 1% w/v ascorbic acid and 6% v/v ethanol) and peptide conjugate (1 nmol). A peptide conjugate of the present disclosure is also referred to herein as a “chelator-peptide”. The pH of the solution was determined to be approximately 5 by using pH strips. The reaction vial was incubated at 80° C., 700 RPM for 17-20 minutes. A sample from the reaction was analyzed by RP-HPLC using an Agilent Infinity II 1260 HPLC to determine reaction completion and radiochemical purity of [^177Lu]Lu-chelator-peptide. HPLC conditions: Waters XBridge BEH C18 Column, 130 Å, 3.5 um, 4.6 mm×250 mm; mobile phase: Solvent A=water (with 0.1% formic acid), solvent B=acetonitrile (with 0.1% formic acid). Gradients: 25-45% B in 10 minutes, 45-65% B in 12 minutes, 65-90% in 6 minutes at a flow rate of 0.5 mL/minute. Required amounts of the product was formulated in 1% PBSA for cell studies.
(§2) The study was conducted using SHP-77, CT26.WT, and CT26.DLL3 cells (Table 7) Adherent cell studies: The cells were cultured in appropriate culture media (20 mL) in tissue culture treated T150 flasks at 37° C. and 5% CO2. Adherent cells were detached (60-70% confluent) using 5 mL Versene at 37° C. for 3 minutes. After confirming the viability using countess and count of detached cells using Trypan blue, the cells were centrifuged at 4° C. for 5 minutes (1,000 rpm). The cell pellet obtained was washed once with PBS and resuspended in 1% PBSA to obtain the desired cell concentration (5-25 million cells/mL).
Suspension cell studies: The cells were cultured in appropriate culture media (20 mL) in tissue culture treated T150 flasks at 37° C. and 5% CO2. After confirming the viability and count of detached cells using Trypan blue, the cells were centrifuged at 4° C. for 5 minutes (1,000 rpm). The cell pellet obtained was washed once with PBS and resuspended in 1% PBSA to obtain the desired cell concentration (5-25 million cells/mL).
(§3) Cell numbers used for the assay were in the range of 5 million cells/condition −25 million cells/condition.
(§4) Total uptake: Cells were incubated with 300 μL (0.8 μCi) of the incubation buffer (containing radiolabeled peptide [^177Lu] Lu-test peptide) for 1 hour at 37° C. (Table 8). Post incubation, the cells were pelleted and washed 2 times using cold PBS+1% BSA. The supernatant and washes were combined and counted together as “unbound fraction” in a gamma counter. The cells were then resuspended in 300 μL of 1% PBS+1% BSA and counted in the gamma counter as “bound fraction”.
(§5) In these Tables, “A” represents %≤25; “B” represents 25<%≤50; “C” represents %>50.

[3] = test system: SHP-77 tumors; assay: Ex vivo biodistribution of radiolabeled peptides in nude mice bearing SHP-77 tumors; conditions: [177Lu]Lu labelling, nude mice bearing SHP-77 tumors (n = 3), 24 hours post-injection
Method in brief: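 Nude mice bearing SHP-77 xenografts (200-400 mm^3) or tumor-naïve mice (5-7 weeks) received an intravenous tail-vein bolus of [^177Lu]Lu-peptide and were euthanized at pre-set time points. Tissues were weighed and gamma-counted, with counts decay-corrected to injection time. Values are % IA/g per tissue from the injected activity of each mouse.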

[4] = biological target: T1, human DLL3 (Homo sapiens, UniProt Q9NYJ7); assay: Affinity determination by Surface Plasmon Resonance (SPR); assay type: binding; conditions: 25° C., biotinylated human DLL3 immobilized on streptavidin sensor chip, 1:1 binding model; read-out: SPR KD
T1 sequence (Q9NYJ7 27-618): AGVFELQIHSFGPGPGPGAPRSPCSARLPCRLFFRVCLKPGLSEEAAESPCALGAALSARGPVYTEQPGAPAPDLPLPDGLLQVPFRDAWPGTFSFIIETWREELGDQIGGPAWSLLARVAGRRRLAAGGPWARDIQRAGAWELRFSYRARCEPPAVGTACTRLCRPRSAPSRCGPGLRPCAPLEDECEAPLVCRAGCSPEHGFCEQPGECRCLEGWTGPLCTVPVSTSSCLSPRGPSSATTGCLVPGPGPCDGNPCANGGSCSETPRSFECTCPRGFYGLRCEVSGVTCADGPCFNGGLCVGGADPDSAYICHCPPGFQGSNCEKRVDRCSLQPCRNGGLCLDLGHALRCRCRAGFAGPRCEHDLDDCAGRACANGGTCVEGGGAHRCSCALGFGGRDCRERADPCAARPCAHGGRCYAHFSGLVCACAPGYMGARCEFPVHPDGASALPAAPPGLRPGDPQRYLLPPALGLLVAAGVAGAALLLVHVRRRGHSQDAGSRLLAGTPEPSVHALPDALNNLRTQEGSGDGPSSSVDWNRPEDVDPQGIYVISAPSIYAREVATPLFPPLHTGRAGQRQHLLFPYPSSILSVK
Method in brief: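 Biotinylated human DLL3 was captured on a streptavidin chip with a reference surface. Compounds at several concentrations were injected at 100 μL/minute in phosphate buffer (137 mM NaCl, 2.7 mM KCl, 0.05% P20, 2% DMSO). Affinity and kinetics came from 1:1 model fits of the sensorgrams.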

[5] = test system: CT26.DLL3 cells; assay: Internalization (out of bound fraction) of [177Lu]Lu-test peptide, CT26.DLL3 cells; assay type: cell-based; conditions: 1 hour at 37° C., glycine pH 2.5 wash
Method: as §1, §2, §3, §4
Internalization: The resuspended cells in 300 μl of 1% PBSA and counted in the gamma counter as “bound fraction” were collected in 1.5 mL Eppendorf tube and pelleted. The pelleted cells were incubated with 300 μl of 50 mM Glycine pH=2.5 for 3 minutes and then pelleted discarding the supernatant. This process was repeated one more time. The pelleted cells were washed with 300 μl of cold 1% PBSA and then resuspended in 300 μl 0.3M NaOH. This was counted in the gamma counter as “internalized fraction”.
as §5

SMILES | % Binding [1] | % Binding [2] | kidney uptake (% IA/g) [3] | tumor uptake (% IA/g) [3] | Kd [4] [nM] | % Internalization (out of bound fraction) [5]
CC[C@H](C)[C@H](NC(=O)[C@@H](NC(=O)[C@H](Cc1c[nH]c2ccccc12)NC(C)=O)[C@@H](C)O)C(=O)N[C@H]1CSSC[C@@H](C(=O)N[C@@H](Cc2c[nH]c3ccccc23)C(=O)N2CCC[C@H]2C(=O)N[C@H](CCCCNC(=O)CN2CCN(CC(=O)O)CCN(CC(=O)O)CCN(CC(=O)O)CC2)C(N)=O)NC(=O)[C@H](CC(=O)O)NC(=O)[C@H](Cc2cnc[nH]2)NC(=O)[C@H](Cc2c[nH]c3ccccc23)NC(=O)[C@H](CC(N)=O)NC(=O)[C@H](CC(N)=O)NC1=O [compound 23, Ac-W-T-I-C(3)-N-N-W-H-D-C(3)-W-P-[D-Lys(DOTA)]-NH2] (Ac-WTICNNWHDCWP[dK](DOTA)-NH2; disulfide 4-10) | A (%≤25) | A (%≤25) | D (% IA/g > 10 in kidney) | A (0 < % IA/g ≤ 5 in tumor) | 1 to 10 | –
CC[C@H](C)[C@H](NC(=O)[C@@H](NC(=O)[C@H](Cc1c[nH]c2ccccc12)NC(C)=O)[C@@H](C)O)C(=O)N[C@H]1CSSC[C@@H](C(=O)N[C@@H](Cc2c[nH]c3ccccc23)C(=O)N2CCC[C@H]2C(=O)N[C@H](CCCCNC(=O)CN2CCN(CC(=O)O)CCN(CC(=O)O)CCN(CC(=O)O)CC2)C(N)=O)NC(=O)[C@H](CC(=O)O)NC(=O)[C@H](Cc2cnc[nH]2)NC(=O)[C@H](Cc2ccc3ccccc3c2)NC(=O)[C@H](CC(N)=O)NC(=O)[C@H](CC(N)=O)NC1=O [compound 75, Ac-W-T-I-C(3)-N-N-(2Nal)-H-D-C(3)-W-P-[D-Lys(DOTA)]-NH2] (Ac-WTICNN[2Nal]HDCWP[dK](DOTA)-NH2; disulfide 4-10) | B (25<%≤50) | A (%≤25) | D (% IA/g > 10 in kidney) | A (0 < % IA/g ≤ 5 in tumor) | 1 to 10 | B (25<%≤50)
CCC(CC)[C@H](NC(=O)[C@@H](NC(=O)[C@H](Cc1c[nH]c2ccc(F)cc12)NC(C)=O)[C@@H](C)O)C(=O)N[C@H]1CSSC[C@@H](C(=O)N[C@@H](Cc2c[nH]c3ncccc23)C(=O)N2C[C@H](F)C[C@H]2C(=O)N[C@H](CCCCNC(=O)CN2CCN(CC(=O)O)CCN(CC(=O)O)CCN(CC(=O)O)CC2)C(N)=O)NC(=O)[C@H](CC(=O)O)NC(=O)[C@H](Cc2cnc[nH]2)NC(=O)[C@H](Cc2ccc(C(F)(F)F)cc2)NC(=O)[C@H](CC(N)=O)NC(=O)[C@H](CC(N)=O)NC1=O [compound 146, Ac-(5Fluoro-W)-T-(Env)-C(3)-N-N-(4CF3-F)-H-D-C(3)-(7Aza-W)-(trans4Fluoro-P)-[D-Lys(DOTA)]-NH2] (Ac-[Trp(5-F)]T[Nva(3-Et)]CNN[Phe(4-CF3)]HDC[Trp(7-aza)][Pro(trans-4-F)][dK](DOTA)-NH2; disulfide 4-10) | – | A (%≤25) | C (0 < % IA/g ≤ 10 in kidney) | A (0 < % IA/g ≤ 5 in tumor) | < 1 | –
CC[C@H](C)[C@H](NC(=O)[C@@H](NC(=O)[C@H](Cc1c[nH]c2ccccc12)NC(C)=O)[C@@H](C)O)C(=O)N[C@H]1CSCSC[C@@H](C(=O)N[C@@H](Cc2c[nH]c3ccccc23)C(=O)N2CCC[C@H]2C(=O)N[C@H](CCCCNC(=O)CN2CCN(CC(=O)O)CCN(CC(=O)O)CCN(CC(=O)O)CC2)C(N)=O)NC(=O)[C@H](CC(=O)O)NC(=O)[C@H](Cc2cnc[nH]2)NC(=O)[C@H](Cc2ccc3ccccc3c2)NC(=O)[C@H](CC(N)=O)NC(=O)[C@H](CC(N)=O)NC1=O [compound 165, Ac-WTI-C(1)-NN(2Nal)HD-C(1)-WP-[D-Lys(DOTA)]-NH2] (Ac-WTICNN[2Nal]HDCWP[dK](DOTA)-NH2; linker 4-10 via CH2) | – | A (%≤25) | – | – | < 1 | –
CC[C@H](C)[C@H](NC(=O)[C@@H](NC(=O)[C@H](Cc1c[nH]c2ccccc12)NC(C)=O)[C@@H](C)O)C(=O)N[C@H]1CSSC[C@@H](C(=O)N[C@@H](Cc2c[nH]c3ccccc23)C(=O)N2CCC[C@H]2C(=O)N[C@@H](CCCCNC(=O)CN2CCN(CC(=O)O)CCN(CC(=O)O)CCN(CC(=O)O)CC2)C(N)=O)NC(=O)[C@H](CC(=O)O)NC(=O)[C@H](Cc2cnc[nH]2)NC(=O)[C@H](Cc2ccc3ccccc3c2)NC(=O)[C@H](CC(N)=O)NC(=O)[C@H](CC(N)=O)NC1=O [compound 166, Ac-W-T-I-C(3)-N-N-(2Nal)-H-D-C(3)-W-P-[L-Lys(DOTA)]-NH2] (Ac-WTICNN[2Nal]HDCWPK(DOTA)-NH2; disulfide 4-10) | – | A (%≤25) | – | – | < 1 | –
